From ChEMBL document CHEMBL1133801, “Synthesis, characterisation and antiamoebic activity of new thiophene-2-carboxaldehyde thiosemicarbazone derivatives and their cyclooctadiene Ru(II) complexes” (Bioorg Med Chem Lett, 2001)
In brackets after ≈: the same amount, converted by molar mass.

The compounds below were run on Entamoeba histolytica (assay: In vitro antiamoebic activity was evaluated against HK-9 strain of Entamoeba histolytica).
Assay type: functional, organism-based

IC50 [µg/mL]	Compound
0.5 (≈ 1.69 µM)	S=C(N/N=C/c1cccs1)NC1CCCCCCC1
0.56 (≈ 2.09 µM)	S=C(N/N=C/c1cccs1)NC1CCCCC1
0.64 (≈ 2.53 µM)	S=C(N/N=C/c1cccs1)NC1CCCC1
0.7 (≈ 2.62 µM)	S=C(N/N=C/c1cccs1)N1CCCCCC1
0.22 (≈ 1.29 µM)	Cc1ncc([N+](=O)[O-])n1CCO [METRONIDAZOLE]
